{"source": "patent US3987055A", "about": "“Azasteroids compounds and derivatives” (The Board of Regents for the Oklahoma Agricultural & …, priority 1974, dated 1976)", "key": {"[1]": {"tested_on": "acid phosphatase, KB and L-M cells", "assay": "relative acid phosphatase staining (permeability of lysosomal membrane) of KB and L-M cells", "assay_type": "cell-based, human (KB) and mouse (L-M)", "details": "control experiment with Triton X-100"}, "L-M cells [2]": {"tested_on": "L-M cells", "assay": "growth inhibition of mouse L-M cell line", "assay_type": "cell-based", "experimental": "Cells (1 × 10^5 /ml) were added to the \"incubated\" compound-containing medium."}, "L-M cells [3]": {"tested_on": "L-M cells", "assay": "uptake and incorporation of 3H-thymidine, 3H-uridine and 14C-leucine by L-M cells", "assay_type": "cell-based, mouse", "details": "15 μg/ml", "experimental": "^3 H-Thymidine (10 μCi), or ^3 H-uridine (10 μCi), or ^14 C-leucine (5 .rho.Ci), was added to suspension cultures of L-M cells (8 × 10^5; /ml) in McCoy's 5a modified medium containing either 0 or 15 μg/ml of compound 5c. The cells were incubated at 37° C. One ml samples were removed at varying intervals and the rates of uptake and incorporation were determined from the liner portion of radioactivity versus time curves."}, "KB cells [4]": {"tested_on": "KB cells", "assay": "relative plating efficiency of KB cells (colony formation, 7 days)", "assay_type": "cell-based, human", "experimental": "The KB cells were plated in plastic tissue culture dishes and grown in a 5% CO2 gas phase incubator for 7 days. The medium was removed, the plates washed with Hanks' salt solution and the cells stained with a 0.5% aqueous crystal violet solution, rinsed and dried. The colonies were counted and the relative plating efficiency calculated using the number of control colonies as 100 percent."}, "KB cells [5]": {"tested_on": "KB cells", "assay": "colony and cell morphology of KB cells", "assay_type": "cell-based, human", "details": "10 and 20 μg/ml", "experimental": "Differences in cell morphology were also observed. […] Since the difference in staining density could be the result of modification of intracellular structures, such as lysosomes, experiments were performed to determine the effect of the compounds on the permeability of lysosomal membrane."}, "rat testis tubules [6]": {"tested_on": "rat testis tubules", "assay": "glucose oxidation (glucose-U-14C) by rat testis tubules in vitro", "assay_type": "cell-based", "experimental": "(§1) For these investigations the compounds were diluted in a minimal amount of ethanol and further diluted in saline (0.85%) so that the final concentration was 1 mg/ml. The compounds were placed in solution and gassed under N2 and stored at 5° C until used 2 days later for the in vitro incubation studies. Details of the in vitro incubation procedures may be found in Endocrinology 89:791-800 (1971).\nThe effects of these compounds on glucose oxidation by testis tubules was examined by incubating about 200 mg of teased testis tubules from mature rats in a 25 ml Erlenmeyer flask containing 3 ml of Krebs Ringer bicarbonate buffer (pH 7.4), D-glucose-U-^14 C (0.5 μCi; 10mM) and 0.25 ml of the azasteroid (1 mg/ml) to be tested. The flasks were incubated for 2 hours at 33° C under 95% O2 :5% CO2. The reaction was terminated by adding 0.25 ml of 5 N H2 SO4. Carbon dioxide was trapped in 0.25 ml of hydroxide of Hyamine. The radioactivity present in the Hyamine was determined by liquid scintillation spectrometry. This table includes a detailed summary of the results obtained and an average for each compound. […] Thus, the compounds have potential for antifertility activity in the control of wild rodent populations and possibly stray animals such as dogs and cats.\nCPM = counts per minute. Glucose-U-^14 C activity was 0.5 millicurie.\nAll compounds were tested in a concentration of 250 mg per flask."}, "[7]": {"tested_on": "acid phosphatase, KB and L-M cells", "assay": "relative acid phosphatase staining (permeability of lysosomal membrane) of KB and L-M cells", "assay_type": "cell-based, human (KB) and mouse (L-M)", "parameters": "key to Relative acid phosphatase staining: light: cells showing only a few scattered granules; medium: more dense but distinct isolated granules were still detected; heavy: a more intense staining with fewer discrete granules", "details": "20 μg/ml", "experimental": "KB and L-M cells were grown on coverslips in medium 199 with 10% calf serum for the 24 hour growth prior to staining in the presence or absence of compound 5c (20 μg/ml) or compound 5d (20 μg/ml). The cells were washed in Hanks' salt solution, incubated at 37° C in Gomori's substrate solution for 1, 2, or 3 hours, washed, treated with a 1% solution of ammonium sulfide, washed, mounted and observed microscopically. Light staining was designated as cells showing only a few scattered granules; medium staining was more dense but distinct isolated granules were still detected; and heavy staining a more intense staining with fewer discrete granules. Heavy staining denotes increased phosphatase activity.\nThe acid phosphatase activity was measured in KB and L-M cells grown in medium in the presence or absence compound 5c or 5d (20 μg/ml) for 2 or 24 hours prior to staining (Table 2). Quantitative evaluation of the relative staining intensity of the lysosomes was compared in the treated and untreated cells. […] Thus, cells grown in the presence of compound 5c accumulate the phosphatase substrate within the lysosomes much more rapidly than the control or compound 5d treated cells indicating the compounds ability to alter membrane permeability and thus regulate the accumulation of essential metabolites. Control of this cellular capacity permits regulation of cell division so important in cancer chemotherapy. Since the permeation of the substrate is the rate-limiting step in the phosphatase determination, compound 5c produces a modification of the lysosomal membrane which increased the permeability of the lysosome to the substrate. The results also emphasize the difference in biological activity of compound 5c and 5d type molecules which chemically are similar except at C-3. Differences in the biological activity have been observed when the compounds were tested using various bacteria."}, "rat testis tubules [8]": {"tested_on": "rat testis tubules", "assay": "lysine-U-14C incorporation into protein by rat testis tubules in vitro", "assay_type": "cell-based", "experimental": "as §1\nThe effects of the compounds on the incorporation of lysine -U-^14 C into trichloroacetic (TCA) precipitable protein of rat testes was investigated by incubating about 200 mg of teased testis tubules from mature rats in a 25 ml Erlenmeyer flask containing 3 ml of Krebs Ringer bicarbonate buffer (pH 7.4), L-lysine-U-^14 C (0.5 μCi; 0.1mM), glucose (10 mM) and 0.25 ml of the azasteroid to be tested. The flasks were incubated for 1 hour at 33° C under 95% O2 : 5% CO2 and the TCA precipitable protein was isolated and an aliquot used to measure radioactivity.\nCPM = counts per minute. All compounds were tested in a concentration of […]"}, "KB cells [9]": {"tested_on": "KB cells", "assay": "growth inhibition of human tumor KB cell line", "assay_type": "cell-based", "details": "10 μg/ml or greater, read-out: concentration at which growth was inhibited", "experimental": "For example, growth of both the human tumor KB* and the mouse L-M** cell lines was inhibited when the cells were grown in media containing 10 μg/ml or greater"}, "[10]": {"details": "individual flask, 250 mg per flask (so in the source), 2 hours, 33° C"}, "[11]": {"details": "individual flask, 250 mg per flask (so in the source), 1 hour, 33° C"}}, "note": "Several values for one entry are separate records, joined by “and”; a condition that tells them apart may be missing. Equal entries are not always repeated.", "data": [{"smiles": "CC12CCN=C1c1ccc3cc(O)ccc3c1CC2", "note": "(stereo not shown) [Compound 5c, 1,10,11,11a-tetrahydro-11a-methyl-2H-naphth[1,2-g]indol-7-ol]", "values": [{"measurement": "induction of synthesis of acid phosphatase", "setting": "[1]", "value": "does not induce synthesis of acid phosphatase in the cell"}, {"measurement": "growth rate versus control", "setting": "L-M cells [2]; 1 μg/ml", "value": "same growth rate as the control"}, {"measurement": "growth inhibition at 20 μg/ml", "setting": "L-M cells [2]; 20 μg/ml", "value": "marked inhibition"}, {"measurement": "increase in cell numbers", "setting": "L-M cells [2]; 20 μg/ml, after three days", "value": "no significant increase in cell numbers"}, {"measurement": "activity at 10 µg/mL", "setting": "L-M cells [2]; Mus musculus, 96 h, 10 μg/ml, fourth day, read-out: growth as % of the control", "value": 50, "unit": "%"}, {"measurement": "minimal effective concentration", "setting": "L-M cells [2]; Mus musculus, L-M cells, 10 μg/ml or greater, read-out: concentration at which growth was inhibited", "value": "≥ 10", "unit": "µg/mL"}, {"measurement": "uptake of radioactive thymidine, uridine, and leucine", "setting": "L-M cells [3]", "value": "inhibited"}, {"measurement": "Cell Pool", "setting": "L-M cells [3]; 3H-thymidine", "value": 700, "unit": "Cpm/8×10^5 cells/hr"}, {"measurement": "Rate of incorporation", "setting": "L-M cells [3]; 3H-thymidine", "value": "1,300 Cpm/8×10^5 cells/hr"}, {"measurement": "Rate of uptake", "setting": "L-M cells [3]; 3H-thymidine", "value": "2,000 Cpm/8×10^5 cells/hr"}, {"measurement": "Cell Pool", "setting": "L-M cells [3]; 3H-uridine", "value": "1,600 Cpm/8×10^5 cells/hr"}, {"measurement": "Rate of incorporation", "setting": "L-M cells [3]; 3H-uridine", "value": "1,400 Cpm/8×10^5 cells/hr"}, {"measurement": "Rate of uptake", "setting": "L-M cells [3]; 3H-uridine", "value": "3,000 Cpm/8×10^5 cells/hr"}, {"measurement": "Cell Pool", "setting": "L-M cells [3]; 14C-leucine", "value": "1,200 Cpm/8×10^5 cells/hr"}, {"measurement": "Rate of incorporation", "setting": "L-M cells [3]; 14C-leucine", "value": "2,800 Cpm/8×10^5 cells/hr"}, {"measurement": "Rate of uptake", "setting": "L-M cells [3]; 14C-leucine", "value": "4,000 Cpm/8×10^5 cells/hr"}, {"measurement": "inhibition at 15 µg/mL", "setting": "L-M cells [3]; Mus musculus, read-out: reduction of radioactivity present in the pool for each of the precursors", "value": "~66", "unit": "%"}, {"measurement": "effect on the relative plating efficiency", "setting": "KB cells [4]; 1 μg/ml", "value": "little effect"}, {"measurement": "activity at 1 µg/mL", "setting": "KB cells [4]; Homo sapiens, KB, 168 h, 1 μg/ml", "value": 91, "unit": "%"}, {"measurement": "activity at 10 µg/mL", "setting": "KB cells [4]; Homo sapiens, KB, 168 h, 10 μg/ml", "value": 38, "unit": "%"}, {"measurement": "cytotoxicity at 10 µg/mL", "setting": "KB cells [4]; Homo sapiens, KB, 168 h, 10 μg/ml, 7 days, read-out: cells killed", "value": 62, "unit": "%"}, {"measurement": "activity at 20 µg/mL", "setting": "KB cells [4]; Homo sapiens, KB, 168 h, 20 μg/ml", "value": 17, "unit": "%"}, {"measurement": "cytotoxicity at 20 µg/mL", "setting": "KB cells [4]; Homo sapiens, KB, 168 h, 20 μg/ml, 7 days, read-out: cells killed", "value": 83, "unit": "%"}, {"measurement": "cell division", "setting": "KB cells [5]", "value": "did not divide, or if limited division occurred, only a few small colonies were formed containing a small number of cells"}, {"measurement": "density of treated cells", "setting": "KB cells [5]", "value": "less uniform density with areas of heavy and light staining"}, {"measurement": "position of nuclei in treated cells", "setting": "KB cells [5]", "value": "located at the periphery of the cell which contained little cytoplasm"}, {"measurement": "AVERAGE glucose oxidation", "setting": "rat testis tubules [6]; average of flasks", "value": "8,181 CPM/100 mg TISSUE"}, {"measurement": "depression of glucose oxidation in vitro", "setting": "rat testis tubules [6]; in words", "value": "depressed glucose oxidation in vitro more than compounds 4 c and 11b"}, {"measurement": "GLUCOSE OXIDATION per 100 mg", "setting": "rat testis tubules [6]; [10]", "value": "6,046 CPM/100 mg and 10,317 CPM/100 mg"}, {"measurement": "GLUCOSE OXIDATION per flask", "setting": "rat testis tubules [6]; [10]", "value": "12,450 CPM/FLASK and 21,027 CPM/FLASK"}, {"measurement": "% DEVIATION FROM CONTROL, glucose oxidation", "setting": "rat testis tubules [6]; versus saline, 120 min", "value": "+20.8%"}, {"measurement": "Relative acid phosphatase staining", "setting": "[7]; 24 h, 1 hour in substrate", "value": "light"}, {"measurement": "Relative acid phosphatase staining", "setting": "[7]; 24 h, 2 hours in substrate", "value": "medium"}, {"measurement": "Relative acid phosphatase staining", "setting": "[7]; 24 h, 3 hours in substrate", "value": "heavy"}, {"measurement": "staining reaction versus control", "setting": "[7]; 24 h, all three substrate incubation times", "value": "more intense staining reaction"}, {"measurement": "staining intensity versus untreated cells", "setting": "[7]; cells treated for 2 hours", "value": "indistinguishable from untreated cells"}, {"measurement": "AVERAGE OF TWO FLASK lysine incorporation", "setting": "rat testis tubules [8]; average of two flasks", "value": "1,944 CPM/100 mg tissue"}, {"measurement": "lysine incorporation into protein per 100 mg", "setting": "rat testis tubules [8]; [11]", "value": "1,616 CPM/100 mg and 2,273 CPM/100 mg"}, {"measurement": "lysine incorporation into protein per flask", "setting": "rat testis tubules [8]; [11]", "value": "3,325 CPM/FLASK and 4,575 CPM/FLASK"}, {"measurement": "minimal effective concentration", "setting": "KB cells [9]", "value": "≥ 10", "unit": "µg/mL"}]}]}
